Measurements: patent publication US9085584B2, “Substituted pyrido[3,2-E][1,2,4]-triazolo[4,3-A]pyrazines for the treatment of central nervous system disorders” (Boehringer Ingelheim International GmbH, priority 2012, dated 2015)

Experiment: Metabolic stability in pooled liver microsomes
Format: in vitro ADME, human
Conditions: 1 μM test compound, 37° C.; for Half-life - t½: human liver microsomes; for half-life at 1 μM: human, pooled liver microsomes, pH 7.6, human liver microsomes, read-out: Half-life - t½
Method: The metabolic stability of the compounds according to the invention has been investigated as follows:
The metabolic degradation of the test compound was assayed at 37° C. with pooled liver microsomes from various species. The final incubation volume of 100 μl per time point contains TRIS buffer pH 7.6 at room temperature (0.1 M), magnesium chloride (5 mM), microsomal protein (1 mg/mL for human and dog, 0.5 mg/mL for other species) and the test compound at a final concentration of 1 μM. Following a short preincubation period at 37° C., the reactions were initiated by addition of betanicotinamide adenine dinucleotide phosphate, reduced form (NADPH, 1 mM), and terminated by transferring an aliquot into solvent after different time points. […] The half-life was determined by the slope of the semi-logarithmic plot of the concentration-time profile.

SMILES: Cc1nc2ccc(C(C)C)nc2n2c(-c3cc(OCC(C)(C)O)ccc3F)nnc12 [Example 52]
- Half-life - t½: 2.17 h

SMILES: Cc1nc2cccnc2n2c(-c3cc(OC4COCCC4O)ccc3Cl)nnc12 (single isomer, unassigned) [Example 58]
- Half-life - t½: 2.17 h

SMILES: Cc1nc2ccc(C3CC3)nc2n2c(-c3cc(CCC(C)(C)O)ccc3Cl)nnc12 [Example 69]
- half-life at 1 μM: 0.883 h

SMILES: Cc1ccc2nc(C)c3nnc(-c4cc(C(C)(C)O)ccc4Cl)n3c2n1 [Example 71]
- Half-life - t½: 2.17 h

SMILES: Cc1nc2cccnc2n2c(-c3cc(CC(C)(C)O)ccc3Cl)nnc12 [Example 82]
- Half-life - t½: 2.17 h

SMILES: Cc1nc2cccnc2n2c(-c3cc(OC[C@H](C)O)ccc3Cl)nnc12 [Example 18]
- Half-life - t½: 2.17 h

SMILES: Cc1nc2cccnc2n2c(-c3cc(OC4COCC4O)ccc3Cl)nnc12 (single isomer, unassigned) [Example 55a]
- Half-life - t½: 2.17 h

SMILES: Cc1ccc(OC2COCC2O)cc1-c1nnc2c(C)nc3ccc(C4CC4)nc3n12 (racemic) [Example 57]
- Half-life - t½: 2.17 h

SMILES: Cc1nc2ccc(C(C)C)nc2n2c(-c3cc(C(C)(C)O)ccc3Cl)nnc12 [Example 77]
- half-life at 1 μM: 1.5 h

SMILES: Cc1nc2cccnc2n2c(-c3cc(C4(O)CCOC4)ccc3Cl)nnc12 (single isomer, unassigned) [Example 99]
- Half-life - t½: 2.17 h

SMILES: Cc1nc2ccc(C3CC3)nc2n2c(-c3cc(C(C)(C)O)ccc3Cl)nnc12 [Example 85]
- Half-life - t½: 2.17 h

SMILES: CCCC(O)c1ccc(Cl)c(-c2nnc3c(C)nc4ccc(C)nc4n23)c1 (stereo not drawn) [Example 61]
- half-life at 1 μM: 1.08 h

SMILES: CCC(O)c1ccc(Cl)c(-c2nnc3c(C)nc4ccc(C)nc4n23)c1 (stereo not drawn) [Example 62]
- Half-life - t½: 2.17 h

SMILES: Cc1ccc(OC2COCC2O)cc1-c1nnc2c(C)nc3ccc(C4CC4)nc3n12 (single isomer, unassigned) [Example 57b]
- half-life at 1 μM: 1.55 h

SMILES: Cc1nc2ccc(C3CC3)nc2n2c(-c3cc(OC4COCC4O)ccc3Cl)nnc12 (racemic) [Example 56]
- half-life at 1 μM: 2 h

SMILES: Cc1nc2cccnc2n2c(-c3cc(OC4CCC(F)(F)CC4)ccc3Cl)nnc12 [Example 21]
- Half-life - t½: 2.17 h

SMILES: Cc1ccc2nc(C)c3nnc(-c4cc(O[C@@H]5CCOC5)ccc4Cl)n3c2n1 [Example 42]
- Half-life - t½: 2.17 h

SMILES: Cc1nc2ccc(C(F)(F)F)nc2n2c(-c3cc(O)ccc3Cl)nnc12 [Example 12]
- half-life at 1 μM: 1.05 h

SMILES: Cc1nc2cccnc2n2c(-c3cc(OCC(C)(C)O)ccc3Cl)nnc12 [Example 44]
- Half-life - t½: 2.17 h

SMILES: Cc1nc2cccnc2n2c(-c3cc(C4(O)CCOCC4)ccc3Cl)nnc12 [Example 93]
- Half-life - t½: 2.17 h

SMILES: Cc1nc2ccc(C3CC3)nc2n2c(-c3cc(OC4COCC4O)ccc3Cl)nnc12 (single isomer, unassigned) [Example 56a]
- half-life at 1 μM: 1.83 h

SMILES: Cc1nc2ccc(C(F)(F)F)nc2n2c(-c3cc(C4(O)CCOCC4)ccc3Cl)nnc12 [Example 96]
- half-life at 1 μM: 1.83 h

SMILES: Cc1nc2ccc(C3CC3)nc2n2c(-c3cc(C4(O)CCC4)ccc3Cl)nnc12 [Example 88]
- half-life at 1 μM: 0.883 h

SMILES: Cc1ccc(CCC(C)(C)O)cc1-c1nnc2c(C)nc3ccc(C4CC4)nc3n12 [Example 68]
- half-life at 1 μM: 0.65 h

SMILES: Cc1ccc2nc(C)c3nnc(-c4cc(OCC(C)(C)O)ccc4Cl)n3c2n1 [Example 46]
- Half-life - t½: 2.17 h

SMILES: Cc1nc2cccnc2n2c(-c3cc(C(C)(C)O)ccc3Cl)nnc12 [Example 70]
- Half-life - t½: 2.17 h

SMILES: Cc1ccc(C(C)(C)O)cc1-c1nnc2c(C)nc3ccc(C(C)C)nc3n12 [Example 78]
- half-life at 1 μM: 1.32 h

SMILES: Cc1nc2ccc(C3CC3)nc2n2c(-c3cc(O)ccc3F)nnc12 [Example 5]
- half-life at 1 μM: 0.717 h

SMILES: Cc1ccc(C2(O)CCOCC2O)cc1-c1nnc2c(C)nc3ccc(C4CC4)nc3n12 (racemic) [Example 104]
- Half-life - t½: 2.17 h

SMILES: Cc1nc2ccc(C3CC3)nc2n2c(-c3cc(OC4COCC4O)ccc3Cl)nnc12 (single isomer, unassigned) [Example 58c]
- Half-life - t½: 2.17 h

SMILES: Cc1nc2ccc(C3CC3)nc2n2c(-c3cc(CC(C)(C)O)ccc3F)nnc12 [Example 80]
- half-life at 1 μM: 1.38 h

SMILES: Cc1nc2ccc(C3CC3)nc2n2c(-c3cc(OCC(C)(C)O)ccc3Cl)nnc12 [Example 45]
- Half-life - t½: 2.17 h

SMILES: Cc1nc2cccnc2n2c(-c3cc(OCCCO)ccc3Cl)nnc12 [Example 13]
- Half-life - t½: 2.17 h

SMILES: Cc1ccc2nc(C)c3nnc(-c4cc(C(O)C(C)C)ccc4Cl)n3c2n1 (stereo not drawn) [Example 59]
- Half-life - t½: 0.817 h

SMILES: Cc1nc2ccc(C3CC3)nc2n2c(-c3cc(C4(O)CCC4)ccc3F)nnc12 [Example 84]
- half-life at 1 μM: 0.65 h

SMILES: Cc1nc2ccc(C3CC3)nc2n2c(-c3cc(C(C)(C)O)ccc3F)nnc12 [Example 76]
- Half-life - t½: 2.17 h

SMILES: Cc1ccc(OC2COCC2O)cc1-c1nnc2c(C)nc3ccc(C4CC4)nc3n12 (single isomer, unassigned) [Example 57a]
- Half-life - t½: 2.17 h

SMILES: Cc1nc2ccc(C3CC3)nc2n2c(-c3cc(OC4COCC4O)ccc3Cl)nnc12 (single isomer, unassigned) [Example 56b]
- Half-life - t½: 1.03 h

SMILES: Cc1ccc(CC(C)(C)O)cc1-c1nnc2c(C)nc3ccc(C4CC4)nc3n12 [Example 81]
- half-life at 1 μM: 0.433 h

SMILES: Cc1nc2cc(C(C)C)cnc2n2c(-c3cc(OCC(C)(C)O)ccc3Cl)nnc12 [Example 54]
- Half-life - t½: 2.17 h

SMILES: Cc1nc2ccc(C(C)C)nc2n2c(-c3cc(C4(O)CCC4)ccc3Cl)nnc12 [Example 91]
- half-life at 1 μM: 0.467 h

SMILES: Cc1nc2cccnc2n2c(-c3cc(OC4CCOCC4)ccc3Cl)nnc12 [Example 20]
- Half-life - t½: 2.17 h

SMILES: Cc1ccc2nc(C)c3nnc(-c4cc(C5(O)CCC5)ccc4Cl)n3c2n1 [Example 89]
- Half-life - t½: 2.17 h

SMILES: Cc1nc2ccc(C3CC3)nc2n2c(-c3cc(C(C)(C)CO)ccc3F)nnc12 [Example 101]
- half-life at 1 μM: 0.367 h

SMILES: Cc1ccc(CCC(C)(C)O)cc1-c1nnc2c(C)nc3cccnc3n12 [Example 67]
- Half-life - t½: 2.17 h

SMILES: Cc1nc2cccnc2n2c(-c3cc(C4(O)CCC4)ccc3Cl)nnc12 [Example 87]
- Half-life - t½: 2.17 h

SMILES: Cc1nc2ccc(C3CC3)nc2n2c(-c3cc(OC4COCC4O)ccc3Cl)nnc12 (single isomer, unassigned) [Example 58b]
- Half-life - t½: 2.17 h

SMILES: Cc1nc2cccnc2n2c(-c3cc(O)ccc3Cl)nnc12 [Example 1]
- Half-life - t½: 2.17 h

SMILES: Cc1ccc(OCC2(O)CCC2)cc1-c1nnc2c(C)nc3cccnc3n12 [Example 50]
- Half-life - t½: 2.17 h

SMILES: Cc1ccc(OCC(C)(C)O)cc1-c1nnc2c(C)nc3ccc(C(C)C)nc3n12 [Example 51]
- Half-life - t½: 2.17 h

SMILES: Cc1ccc2nc(C)c3nnc(-c4cc(OC[C@@H](C)O)ccc4Cl)n3c2n1 [Example 35]
- Half-life - t½: 2.17 h

SMILES: Cc1ccc2nc(C)c3nnc(-c4cc(OC5CCC(F)(F)CC5)ccc4Cl)n3c2n1 [Example 30]
- Half-life - t½: 2.17 h

SMILES: Cc1nc2ccc(C3CC3)nc2n2c(-c3cc(CC(C)(C)O)ccc3Cl)nnc12 [Example 83]
- half-life at 1 μM: 1.67 h

SMILES: Cc1nc2ccc(C3CC3)nc2n2c(-c3cc(OC4CCOCC4)ccc3Cl)nnc12 [Example 32a]
- half-life at 1 μM: 0.6 h

SMILES: Cc1ccc2nc(C)c3nnc(-c4cc(C5(O)CCC5)ccc4C)n3c2n1 [Example 102]
- Half-life - t½: 2.17 h

SMILES: Cc1nc2ccc(C(C)C)nc2n2c(-c3cc(C4(O)CCC4)ccc3F)nnc12 [Example 92]
- half-life at 1 μM: 0.383 h

SMILES: Cc1ccc2nc(C)c3nnc(-c4cc(OC5CCOCC5)ccc4Cl)n3c2n1 [Example 32]
- Half-life - t½: 2.17 h

SMILES: Cc1nc2ccc(C3CC3)nc2n2c(-c3cc(O)ccc3Cl)nnc12 [Example 9]
- half-life at 1 μM: 0.683 h

SMILES: Cc1ccc2nc(C)c3nnc(-c4cc(O[C@H]5CCOC5)ccc4Cl)n3c2n1 [Example 43]
- Half-life - t½: 2.17 h

SMILES: Cc1ccc(C2(O)CCOCC2O)cc1-c1nnc2c(C)nc3ccc(C4CC4)nc3n12 (single isomer, unassigned) [Example 104a]
- Half-life - t½: 2.17 h

SMILES: Cc1nc2ccc(C3CC3)nc2n2c(-c3cc(OC4COCC4O)ccc3Cl)nnc12 (racemic) [Example 58a]
- Half-life - t½: 2.17 h

SMILES: Cc1ccc2nc(C)c3nnc(-c4cc(C(C)O)ccc4Cl)n3c2n1 (stereo not drawn) [Example 63]
- Half-life - t½: 2.17 h

SMILES: Cc1nc2ccc(C3CC3)nc2n2c(-c3cc(C4(O)CCOCC4)ccc3Cl)nnc12 [Example 94]
- half-life at 1 μM: 0.633 h

SMILES: Cc1nc2ccc(C3CC3)nc2n2c(-c3cc(CCC(C)(C)O)ccc3F)nnc12 [Example 66]
- half-life at 1 μM: 0.95 h

SMILES: Cc1ccc(OCC(C)(C)O)cc1-c1nnc2c(C)nc3ccc(C4CC4)nc3n12 [Example 48]
- Half-life - t½: 2.17 h

SMILES: Cc1nc2cccnc2n2c(-c3cc(OCC4(O)CCC4)ccc3Cl)nnc12 [Example 49]
- Half-life - t½: 2.17 h

SMILES: Cc1ccc(O)cc1-c1nnc2c(C)nc3ccc(C4CC4)nc3n12 [Example 6]
- half-life at 1 μM: 1.1 h

SMILES: Cc1nc2cccnc2n2c(-c3cc(CCC(C)(C)O)ccc3Cl)nnc12 [Example 64]
- Half-life - t½: 2.17 h

SMILES: Cc1ccc2nc(C)c3nnc(-c4cc(OC[C@H](C)O)ccc4Cl)n3c2n1 [Example 34]
- Half-life - t½: 2.17 h

SMILES: Cc1nc2cccnc2n2c(-c3cc(OC[C@@H](C)O)ccc3Cl)nnc12 [Example 17]
- Half-life - t½: 2.17 h

SMILES: Cc1nc2ccc(C3CC3)nc2n2c(-c3cc(OCC(C)(C)O)ccc3F)nnc12 [Example 47]
- Half-life - t½: 2.17 h

SMILES: Cc1nc2ccc(C3(C)CC3)nc2n2c(-c3cc(C(C)(C)O)ccc3F)nnc12 [Example 72]
- Half-life - t½: 2.17 h
